“And” between values parts separate entries of the source, which are not always exact repeats. Equal values may be shown once. “Also recorded” adds a separate entry of the source. Read-outs that look alike come from different tables or passages of the source.
Tests used:
[1] = tested on: U2OS human osteosarcoma cells; assay: Cell painting assay (CPA), morphological profiling and cell count; format: cell-based; conditions: for Percentage of changed features, AreaShape group: shape of the cells; for Lysosomotropic behavior in CPA: cluster assignment in words, N-Lauryldiethanolamine at 30 µM
Procedure: Initially, 5 µL U2OS medium were added to each well of a 384-well plate (PerkinElmer CellCarrier-384 Ultra). Subsequently, U2OS cell were seeded with a density of 1600 cells per well in 20 µL medium. The plate was incubated for 10 min at room temperature (RT), followed by an additional 4 h incubation (37 °C, 5% CO2). […] Incubation with compound was performed for 20 h (37 °C, 5% CO2). Subsequently, mitochondria were stained with Mito Tracker Deep Red (Thermo Fisher Scientific, Cat. No. M22426). The Mito Tracker Deep Red stock solution (1 mM) was diluted to a final concentration of 100 nM in prewarmed medium. The medium was removed from the plate leaving 10 µL residual volume and 25 µL of the Mito Tracker solution were added to each well. The plate was incubated for 30 min in darkness (37 °C, 5% CO2). To fix the cells, 7 µl of 18.5% formaldehyde in PBS were added, resulting in a final formaldehyde concentration of 3.7%. Subsequently, the plate was incubated for another 20 min in darkness (RT) and washed three times with 70 µL of PBS (Biotek Washer Elx405). Cells were permeabilized by addition of 25 µL 0.1% Triton X-100 to each well, followed by 15 min incubation (RT) in darkness. The cells were washed three times with PBS leaving a final volume of 10 µL. To each well 25 µL of a staining solution were added, which contains 1% BSA, 5 µL/mL Phalloidin (Alexa594 conjugate, Thermo Fisher Scientific, A12381), 25 µg/ml Concanavalin A (Alexa488 conjugate, Thermo Fisher Scientific, Cat. No. C11252), 5 µg/ml Hoechst 33342 (Sigma, Cat. No. B2261-25 mg), 1.5 µg/ml WGA-Alexa594 conjugate (Thermo Fisher Scientific, Cat. No. W11262) and 1.5 µM SYTO 14 solution (Thermo Fisher Scientific, Cat. No. S7576). The plate is incubated for 30 min (RT) in darkness and washed three times with 70 µL PBS. After the final washing step, the PBS was not aspirated. The plates were sealed and centrifuged for 1 min at 50 × g.
The images generated were processed with the CellProfiler package (https://cellprofiler.org/, version 3.0.0) on a computing cluster of the Max Planck Society to extract 1716 cell features per microscope site. The data was further aggregated as medians per well (9 sites → 1 well), then over the three replicates.
Out of the initial 1716 features, a subset of 579 highly reproducible and robust features was determined using a procedure based on the criteria described by Woehrmann et al.[54] Two biological repeats of one plate containing reference compounds were analysed. For every feature, its full profile over each whole plate was calculated. […] This procedure was performed once and served as the basis for all subsequent analyses.
The phenotypic profiles were compiled from the Z-scores of all individual cellular features, where the Z-score is a measure of how far away a data point is from a median value.
Specifically, Z-scores of test compounds were calculated relative to the Median of DMSO controls. Thus, the Z-score of a test compound defines how many MADs (Median Absolute Deviations) the measured value is away from the Median of the controls as illustrated by the following formula: Z-score=valuemeas.-MedianControls/MADControls
The phenotypic compound profile is then determined as the list of Z-scores of all features for one compound and is visualized via heatmap (examplarily see Fig. 2).

[2] = tested on: murine mesodermal stem cells (C3H10T1/2); assay: Osteogenesis inhibition assay (OIA), purmorphamine-induced alkaline phosphatase expression; format: cell-based; conditions: for IC50: read-out: Osteogenesis inhibition assay IC50
Procedure: The osteogenesis inhibition assay was performed as described elsewhere[57]. Briefly, murine mesodermal stem cells (C3H10T1/2) were stimulated with purmorphamine (a Hedgehog agonist) to induce the expression of the osteogenesis marker alkaline phosphatase.

CHO DG44 cells = assay: Cytotoxicity testing with CHO cells, cell growth spiking experiments (ASTM E3231-19); format: cell-based, Chinese hamster; conditions: read-out: EC50 with CHO cells
Procedure: The cell line was adapted to grow in suspension without animal-derived supplements. […] This method determines effective concentrations (EC50) that cause 50% inhibition of cell growth. Data evaluation was carried out according to the method described in ASTM E3231-19, “Standard Guide for Cell Culture Growth Assessment of Single-Use Material[23]”. This test defines best practices using serum-free, chemically-defined cell culture medium to prevent false negative results.

CHO cells = tested on: CHO cells; set-up: method as in ref 22 (supplement); conditions: detrimental effect on cell growth; ref 22 (supplement); cited from earlier work
[3] = tested on: different industrial cell lines; set-up: method as in PMID 34411651, PMID 32535801, PMID 32748552; conditions: read-out: EC50 cell growth; cited from earlier work
[4] = cited from earlier work
[5] = Database Genotoxicity & Carcinogenicity ECVAM, ref EURL ECVAM genotoxicity and carcinogencity database, Madia F et al, 2020, cited from earlier work
[6] = biosimilarity of CPA sub-profile to cluster
[7] = C3H10T1/2, purmorphamine, 96 h, alkaline phosphatase expression
[8] = CHO DG44, serum-free chemically defined medium, 72 h, 50% inhibition of cell growth
[9] = 30 µM, U2OS, 20 h, percentage of altered features (579) vs DMSO controls
[10] = in Vitro, Database Genotoxicity & Carcinogenicity ECVAM, ref EURL ECVAM genotoxicity and carcinogencity database, Madia F et al, 2020

SMILES: CC(C)(C)c1ccc(OP(=O)(O)Oc2ccc(C(C)(C)C)cc2C(C)(C)C)c(C(C)(C)C)c1 [bDtBPP, bis(2,4-di-tert-butylphenyl)phosphate]
- Cell count ([1]; 50 µM, U2OS, 20 h): 87 (50 µM) % of control
- Induction in CPA ([1]; 50 µM, U2OS, 20 h, percentage of altered features (579) vs DMSO controls): 17 (50 µM) %
- Percentage of changed features, AreaShape group ([1]; Fig. 6): approx. 20%
- Highest similarity to biological clusters: DNA synthesis [1, 6]: DNA synthesis (65%)
- Impact on cell growth of U2OS cells ([1]; concentrations ≤ 50 µM, in words): no impact on cell growth
- IC50 [2, 7]: 6.8 µM
- EC50 (CHO DG44 cells; [8]): 0.6 µM
- EC50 (CHO cells): < 1 µM
- EC50 [3]: < 1 µM

SMILES: Cc1cc(C)c(C(=O)P(=O)(c2ccccc2)c2ccccc2)c(C)c1 [TPO, diphenyl(2,4,6-trimethylbenzoyl)phosphine oxide]
- Induction in CPA [1, 9]: 11 (30 µM) %
- Cell count ([1]; 50 µM, U2OS, 20 h): 94 (50 µM) % of control
- Percentage of changed features, nuclei (Hoechst) channel ([1]; Fig. 6): approx. 5%
- Percentage of changed features, AreaShape group ([1]; Fig. 6): ~30%
- Highest similarity to biological clusters: HDAC [1, 6]: 77%
- Lysosomotropic behavior in CPA [1]: lysosomotropic behavior; also recorded: Weak lysosomotropic
- IC50 ([2]; Mus musculus, C3H 10T1/2, C3H10T1/2, purmorphamine, 96 h, alkaline phosphatase expression): 5 µM
- Risk based on in vitro genotoxicity data from database (from QSAR-toolbox) ([4]; not checked for in vivo relevance, ref QSAR Toolbox 4.5 database): No alert
- EC50 (CHO DG44 cells; Cricetulus griseus, CHO DG44, serum-free chemically defined medium, 72 h, 50% inhibition of cell growth): 4.4 µM

SMILES: CCCCCCCCCCCCN(CCO)CCO [N-Lauryldiethanolamine]
- Induction in CPA ([1]; 3 µM, U2OS, 20 h, percentage of altered features (579) vs DMSO controls): 61% and 61 (3 µM) %
- U2OS cell count compared to the control ([1]; 30 µM, after 24 h incubation): 50%
- Cell count ([1]; 50 µM, U2OS, 20 h): 11 (50 µM) % of control
- Percentage of changed features, all channels ([1]; Fig. 6, 3 µm): 50 to 90%
- Percentage of changed features, AreaShape group ([1]; Fig. 6): all features
- Concentration from which strong inhibitory effect on cell growth starts ([1]; U2OS, CPA): ≥ 30 µM
- Highest similarity to biological clusters: Cholesterol homeostasis [1, 6]: 88%
- Lysosomotropic behavior in CPA [1]: some lysosomotropic behavior
- Induction in CPA ([1]; tested concentrations ≤ 50 µM, concentration not given at the place, active threshold 5%): > 5%
- Toxic concentration in the osteogenesis inhibition assay ([2]; C3H10T1/2, excluded from dose-response measurement): ≥ 10 µM
- IC50 [2, 7]: ≥ 10 µM
- EC50 (CHO DG44 cells; [8]): 2.1 µM

SMILES: CCCCCCCCCc1ccc(O)cc1 [4-n-Nonylphenol]
- Induction in CPA [1, 9]: 17 (30 µM) %
- Cell count ([1]; 50 µM, U2OS, 20 h): 91 (50 µM) % of control
- Highest similarity to biological clusters: DNA synthesis [1, 6]: DNA synthesis (70%)
- IC50 ([2]; Mus musculus, C3H 10T1/2, 96 h): 3.8 µM
- EC50 (CHO DG44 cells; Cricetulus griseus, CHO-DG44, 72 h): > 4.5 µM

SMILES: CC(C)(c1ccc(O)cc1)c1ccc(O)cc1 [80-05-7]
- Chromosome aberration, in Vivo Mammalian Chromosome Aberration Test [5]: Positive
- Chromosome aberration, Micronucleus Assay ([5]; in Vivo): Negative
- Gene mutation, Bacterial Reverse Mutation Assay (e.g. Ames Test) ([4]; Salmonella typhimurium, No Strain Information, in Vitro, Database: Genotoxicity OASIS, ref Mutation Research 584 (2005) 1-256, Kirkland et al.): Negative
- Gene mutation, Bacterial Reverse Mutation Assay (e.g. Ames Test) ([4]; Salmonella typhimurium, Strain TA 97A, in Vitro, Database: Bacterial mutagenicity ISSSTY, ref CCRIS database,Toxnet databases (Romualdo Benigni)): Negative
- Gene mutation, Bacterial Reverse Mutation Assay (e.g. Ames Test) ([4]; Salmonella typhimurium, Strain TA 98, in Vitro, Database: Bacterial mutagenicity ISSSTY, ref CCRIS database,Toxnet databases (Romualdo Benigni)): Negative
- Gene mutation, Bacterial Reverse Mutation Assay (e.g. Ames Test) ([4]; Salmonella typhimurium, Strain TA 98, in Vitro, Database: Genotoxicity OASIS, ref P&G): Negative
- Gene mutation, Bacterial Reverse Mutation Assay (e.g. Ames Test) ([4]; Salmonella typhimurium, Strain TA 100, in Vitro, Database: Bacterial mutagenicity ISSSTY, ref CCRIS database,Toxnet databases (Romualdo Benigni)): Negative
- Gene mutation, Bacterial Reverse Mutation Assay (e.g. Ames Test) ([4]; Salmonella typhimurium, Strain TA 100, in Vitro, Database: Genotoxicity OASIS, ref P&G): Negative
- Gene mutation, Bacterial Reverse Mutation Assay (e.g. Ames Test) ([4]; Salmonella typhimurium, Strain TA 102, in Vitro, Database: Bacterial mutagenicity ISSSTY, ref CCRIS database,Toxnet databases (Romualdo Benigni)): Negative
- Gene mutation, Bacterial Reverse Mutation Assay (e.g. Ames Test) ([4]; Salmonella typhimurium, Strain TA 1535, in Vitro, Database: Bacterial mutagenicity ISSSTY, ref CCRIS database,Toxnet databases (Romualdo Benigni)): Negative
- Gene mutation, Bacterial Reverse Mutation Assay (e.g. Ames Test) ([4]; Salmonella typhimurium, Strain TA 1535, in Vitro, Database: Genotoxicity OASIS, ref P&G): Negative
- Gene mutation, Bacterial Reverse Mutation Assay (e.g. Ames Test) ([4]; Salmonella typhimurium, Strain TA 1537, in Vitro, Database: Bacterial mutagenicity ISSSTY, ref CCRIS database,Toxnet databases (Romualdo Benigni)): Negative
- Gene mutation, Bacterial Reverse Mutation Assay (e.g. Ames Test) ([4]; Salmonella typhimurium, Strain TA 1537, in Vitro, Database: Genotoxicity OASIS, ref P&G): Negative
- Chromosome aberration, in Vitro Mammalian Chromosome Aberration Test ([4]; in Vitro, Chinese hamster, Chinese Hamster Lung (CHL), Duration 6÷18 h, Database Genotoxicity OASIS, ref Sofuni, T., Ed. (1998). Data Book of Chromosomal Aberration Test In Vitro, Revised Edition): Negative
- Chromosome aberration, in Vitro Mammalian Chromosome Aberration Test ([4]; in Vitro, Chinese hamster, Chinese Hamster Lung (CHL), Duration 24÷48 h, Database Genotoxicity OASIS, ref Sofuni, T., Ed. (1998). Data Book of Chromosomal Aberration Test In Vitro, Revised Edition): Negative
- Chromosome aberration, Micronucleus Assay [4, 10]: Negative
- Chromosome aberration, in Vitro Mammalian Chromosome Aberration Test [4, 10]: Positive
- Gene mutation, Bacterial Reverse Mutation Assay (e.g. Ames Test) [4, 10]: Negative
- Gene mutation, Mammalian Cell Gene Mutation (MLA HPRT) [4, 10]: Inadequate
- Chromosome aberration, in Vitro Mammalian Chromosome Aberration Test ([4]; in Vitro, No Strain Information, Database Genotoxicity OASIS, ref Mutation Research 584 (2005) 1-256, Kirkland et al.): Positive
- Gene mutation, Bacterial Reverse Mutation Assay (e.g. Ames Test) ([4]; in Vitro, Salmonella typhimurium, No Strain Information, Database Genotoxicity OASIS, ref Journal of Medicinal Chemistry 48 (1), pp. 312-32, 25, Kazius J, McGuire R., Bursi R): Negative
- Gene mutation, Bacterial Reverse Mutation Assay (e.g. Ames Test) ([4]; in Vitro, Salmonella typhimurium, Strain TA 97, Database Genotoxicity OASIS, ref P&G): Negative
- Gene mutation, Bacterial Reverse Mutation Assay (e.g. Ames Test) ([4]; in Vitro, Salmonella typhimurium, Strain TA 98, Database Genotoxicity OASIS, ref P&G): Negative
- Gene mutation, Bacterial Reverse Mutation Assay (e.g. Ames Test) ([4]; in Vitro, Salmonella typhimurium, Strain TA 100, Database Genotoxicity OASIS, ref P&G): Negative
- Gene mutation, Bacterial Reverse Mutation Assay (e.g. Ames Test) ([4]; in Vitro, Salmonella typhimurium, Strain TA 102, OECD Guideline 471, Database Genotoxicity OASIS, ref CCRIS database,Toxnet databases): Negative
- Gene mutation, Bacterial Reverse Mutation Assay (e.g. Ames Test) ([4]; in Vitro, Salmonella typhimurium, Strain TA 1535, Database Genotoxicity OASIS, ref P&G): Negative
- Gene mutation, Bacterial Reverse Mutation Assay (e.g. Ames Test) ([4]; in Vitro, Salmonella typhimurium, Strain TA 1537, Database Genotoxicity OASIS, ref P&G): Negative
- Gene mutation, Bacterial Reverse Mutation Assay (e.g. Ames Test) ([4]; in Vitro, Salmonella typhimurium, Strain TA 1538, Database Genotoxicity OASIS, ref P&G): Negative
- Gene mutation, Mammalian Cell Gene Mutation Assay ([4]; in Vitro, T-lymphoma Cell Lines, Database Genotoxicity OASIS, ref Mutation Research 584 (2005) 1-256, Kirkland et al.): Negative
